Literature values, collected in patent US20070178099A1, “Suppression of TNFalpha and IL-12 in therapy” (The Kennedy Institute of Rheumatology, priority 1996, published 2007).
Read-outs that look alike come from different tables or passages of the source.

Experiments:
[1] = system: rheumatoid arthritis
[2] = system: Crohn's disease; conditions: open-label trial

Q: With “cA2: chimeric anti-TNF antibody: variable region of mouse anti-human TNF IgG1 antibody A2 and constant regions of human IgG1, kappa immunoglobulin” as the substance, how does the “clinical effect in rheumatoid arthritis” value ([1]; open-label trials) read?
A: The value was “suppression of inflammation and with successful retreatment after relapse”.

Q: What about the “clinical effect in rheumatoid arthritis” value ([1]; randomized, double-blind, placebo-controlled trial) of the same substance?
A: The value was “suppression of inflammation”.

Q: And the “clinical effect in Crohn's disease” value [2]?
A: Its value is “Beneficial effects”.
